Results reported in patent publication US11384096B2, “Substituted azetidine dihydrothienopyridines and their use as phosphodiesterase inhibitors” (UNION therapeutics A/S, priority 2017, dated 2022).

Tests used:
[1] = target: human PDE4D catalytic domain (Homo sapiens (Human), UniProt Q08499); assay: PDE4 Assay (TR-FRET, cAMP cleavage); type: biochemical; conditions: 50% inhibition of substrate cleavage, read-out: PDE4 IC50 range
Experimental: The human PDE4D catalytic domain (UniProt no. Q08499 [[…]]) was incubated with a mixture of non-labelled cAMP (cyclic adenosine monophosphate) and fluorescein amidite (FAM) conjugated cAMP and titrated test or reference compound. Following brief incubation the enzymatic reaction was stopped by addition of binding buffer containing nanoparticles with immobilized trivalent metal ions capable of binding 1) AMP phospho groups and 2) terbium (Tb) donor fluorophores. Subsequent excitation of the Tb donor triggers time-resolved FRET to adjacent FAM acceptor molecules resulting in light emission. In the presence of a PDE4 inhibitor, AMP generation was reduced resulting in a lower fluorescence signal. The cAMP phosphodiester is not bound by the detection system.
The results were calculated as the molar concentrations resulting in 50% inhibition of the substrate cleavage compared to controls samples, and are expressed as IC50 (nM).

[2] = test system: Human peripheral blood mononuclear cells (PBMC), TNF-α release; assay: TNF-α release in LPS-stimulated PBMC; type: cell-based; conditions: 30 minutes pre-incubation, stimulated for 18 hours with lipopolysaccharide, read-out: TNF-α IC50 range
Experimental: Human peripheral blood mononuclear cells (PBMC) were isolated from buffy coats. The blood is mixed with saline at a ratio of 1:1, and the PBMC were isolated using Lymphoprep Tubes™ (Nycomed, Norway). The PBMC were suspended in RPMI1640 with 0.5% human serum albumin, pen/strep and 2 mM L-glutamine at a concentration of 5×105 c/ml. The cells were pre-incubated for 30 minutes with the test compounds in 96 well tissue culture plates and stimulated for 18 hours with lipopolysaccharide […] (Sigma). TNF-α concentration in the supernatants was measured using homogeneous time-resolved fluorescence resonance (TR-FRET). The assay is quantified by measuring fluorescence at 665 nm (proportional to TNF-α concentration) and 620 nm (control).
Results were expressed as IC50 values calculated from inhibition curves using as positive controls the secretion in LPS stimulated wells and as negative controls the secretion in unstimulated cells.

Chain of human PDE4D catalytic domain (Q08499 380-740 limits assumed): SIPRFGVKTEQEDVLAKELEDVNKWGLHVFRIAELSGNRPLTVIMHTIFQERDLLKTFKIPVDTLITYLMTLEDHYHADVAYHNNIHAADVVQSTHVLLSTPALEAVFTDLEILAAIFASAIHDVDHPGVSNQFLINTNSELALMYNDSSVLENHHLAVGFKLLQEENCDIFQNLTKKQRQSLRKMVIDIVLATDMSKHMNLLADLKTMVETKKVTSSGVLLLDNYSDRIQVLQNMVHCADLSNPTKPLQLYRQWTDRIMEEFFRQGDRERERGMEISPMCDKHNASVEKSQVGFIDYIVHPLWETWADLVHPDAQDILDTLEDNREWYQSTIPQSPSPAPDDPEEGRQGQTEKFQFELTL

SMILES	IC50 [1]	IC50 [2]
[O-][S+]1CCc2nc(N3CC(c4ccc(F)cc4)C3)cc(NC3CCOCC3)c21 (stereo in doubt) [Example 1, (1R)-5-(3-(4-Fluorophenyl)azetidin-1-yl)-7-((tetrahydro-2H-pyran-4-yl)amino)-2,3-dihydrothieno[3,2-b]pyridine 1-oxide]	10 to 50 nM	< 10 nM
[O-][S+]1CCc2nc(N3CC(Oc4ccc(F)cc4)C3)cc(NC3CCOCC3)c21 (stereo in doubt) [Example 4, (1R)-5-(3-(4-Fluorophenoxy)azetidin-1-yl)-7-((tetrahydro-2H-pyran-4-yl)amino)-2,3-dihydrothieno[3,2-b]pyridine-1-oxide]	10 to 50 nM	10 to 50 nM
COC(=O)N1CCC[C@@H](Nc2cc(N3CC(c4ccc(F)cc4)C3)nc3c2[S@+]([O-])CC3)C1 [Example 2, Methyl (3R)-3-[[(1R)-5-[3-(4-fluorophenyl)azetidin-1-yl]-1-oxido-2,3-dihydrothieno-[3,2-b]pyridin-7-yl]amino]piperidine-1-carboxylate]	< 10 nM	< 10 nM
COC(=O)N1CCC[C@@H](Nc2cc(N3CC(c4ccccc4)C3)nc3c2[S@+]([O-])CC3)C1 [Example 3]	< 10 nM	< 10 nM
COC(=O)N1CC[C@H](Nc2cc(N3CC(Oc4ccc(F)cc4)C3)nc3c2[S@+]([O-])CC3)C1 [Example 5, Methyl (3S)-3-[[(1R)-5-[3-(4-fluorophenoxy)azetidin-1-yl]-1-oxido-2,3-dihydrothieno[3,2-b]pyridine-7-yl]amino]pyrrolidine-1-carboxylate]	50 to 150 nM	50 to 150 nM
CC(=O)N1CC[C@H](Nc2cc(N3CC(Oc4ccc(F)cc4)C3)nc3c2[S@+]([O-])CC3)C1 [Example 6, 1-[(3S)-3-[[(1R)-5-[3-(4-Fluorophenoxy)azetidin-1-yl]-1-oxido-2,3-dihydrothieno[3,2-b]pyridin-7-yl]amino]pyrrolidin-1-yl]ethanone]	< 10 nM	10 to 50 nM
[O-][S@+]1CCc2nc(N3CC(c4ccccc4)C3)cc(NC3CCOCC3)c21 [Example 7, (1R)-5-(3-Phenylazetidin-1-yl)-7-((tetrahydro-2H-pyran-4-yl)amino)-2,3-dihydrothieno[3,2-b]pyridine-1-oxide]	10 to 50 nM	10 to 50 nM
